Results reported in patent publication US20230416248A1, “COMPOUNDS AND USES THEREOF” (Foghorn Therapeutics Inc., priority 2020, published 2023).
Read-outs that look alike come from different tables or passages of the source.

How the values were obtained:
BRG-1 = molecular target: T1, BRG-1 (Homo sapiens, UniProt P51532); experiment: ATPase catalytic activity of BRG-1, ADP-Glo in vitro biochemical assay; details: 30 nM BRG-1, 400 μM ATP, read-out: BRG1 IC50
T1 construct: made in house; host or cells: High Five insect cells
T1 sequence (P51532 whole entry): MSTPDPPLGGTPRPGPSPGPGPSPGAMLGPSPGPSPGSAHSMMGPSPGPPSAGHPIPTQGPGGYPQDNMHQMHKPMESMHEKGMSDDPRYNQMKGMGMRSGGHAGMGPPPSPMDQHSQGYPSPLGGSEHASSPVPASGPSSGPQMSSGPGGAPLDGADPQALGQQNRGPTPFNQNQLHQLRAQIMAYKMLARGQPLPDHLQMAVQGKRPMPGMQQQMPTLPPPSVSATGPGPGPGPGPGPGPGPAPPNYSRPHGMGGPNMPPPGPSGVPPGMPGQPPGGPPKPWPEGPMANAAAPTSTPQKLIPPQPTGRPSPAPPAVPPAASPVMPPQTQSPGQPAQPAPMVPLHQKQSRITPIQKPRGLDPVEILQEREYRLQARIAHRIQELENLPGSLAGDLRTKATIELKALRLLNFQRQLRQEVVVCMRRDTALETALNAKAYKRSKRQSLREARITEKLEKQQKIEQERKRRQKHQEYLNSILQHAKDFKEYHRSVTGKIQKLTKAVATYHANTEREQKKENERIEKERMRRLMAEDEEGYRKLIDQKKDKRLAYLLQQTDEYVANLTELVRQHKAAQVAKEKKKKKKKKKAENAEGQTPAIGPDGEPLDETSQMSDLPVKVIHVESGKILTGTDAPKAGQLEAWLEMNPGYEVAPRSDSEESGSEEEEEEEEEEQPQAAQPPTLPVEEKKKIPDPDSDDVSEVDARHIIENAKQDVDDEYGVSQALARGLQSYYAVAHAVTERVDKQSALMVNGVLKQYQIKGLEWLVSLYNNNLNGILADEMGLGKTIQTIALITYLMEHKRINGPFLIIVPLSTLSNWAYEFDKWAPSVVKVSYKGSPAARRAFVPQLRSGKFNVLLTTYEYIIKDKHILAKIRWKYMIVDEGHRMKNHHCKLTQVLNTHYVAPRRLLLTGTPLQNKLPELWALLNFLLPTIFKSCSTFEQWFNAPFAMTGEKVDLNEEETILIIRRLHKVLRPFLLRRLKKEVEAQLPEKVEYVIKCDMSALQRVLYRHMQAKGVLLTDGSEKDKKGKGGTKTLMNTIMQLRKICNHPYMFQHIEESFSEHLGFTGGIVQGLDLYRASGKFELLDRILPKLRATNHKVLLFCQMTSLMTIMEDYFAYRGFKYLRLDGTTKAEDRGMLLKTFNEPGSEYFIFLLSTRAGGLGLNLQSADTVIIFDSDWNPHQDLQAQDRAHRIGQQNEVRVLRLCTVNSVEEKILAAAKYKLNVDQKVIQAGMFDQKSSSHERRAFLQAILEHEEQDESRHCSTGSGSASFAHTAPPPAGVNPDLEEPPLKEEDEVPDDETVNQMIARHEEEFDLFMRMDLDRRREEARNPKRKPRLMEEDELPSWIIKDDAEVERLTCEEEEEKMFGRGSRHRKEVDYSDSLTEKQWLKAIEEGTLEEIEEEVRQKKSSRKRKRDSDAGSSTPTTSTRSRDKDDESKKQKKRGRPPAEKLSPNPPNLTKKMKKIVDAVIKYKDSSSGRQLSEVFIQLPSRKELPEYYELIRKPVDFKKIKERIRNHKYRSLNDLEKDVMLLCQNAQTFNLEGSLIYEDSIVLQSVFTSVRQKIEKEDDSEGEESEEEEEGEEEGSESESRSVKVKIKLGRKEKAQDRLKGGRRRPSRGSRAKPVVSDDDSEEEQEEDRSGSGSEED
In short: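 In this in vitro format, BRG-1 hydrolysis product ADP is detected via a two-step ADP-Glo workup (ATP removal, then ADP-to-ATP conversion with luciferase detection) followed by a luminescence read.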

BRM = molecular target: T2, BRM (Homo sapiens, UniProt P51531); experiment: ATPase catalytic activity of BRM, ADP-Glo in vitro biochemical assay; details: for IC50: 30 nM BRM, 400 μM ATP; for Ratio* (BRG1 IC50 (μM) divided by BRM IC50 (μM)): selectivity ratio BRG1 IC50 / BRM IC50
T2 construct: made in house; host or cells: High Five insect cells
T2 sequence (P51531 whole entry): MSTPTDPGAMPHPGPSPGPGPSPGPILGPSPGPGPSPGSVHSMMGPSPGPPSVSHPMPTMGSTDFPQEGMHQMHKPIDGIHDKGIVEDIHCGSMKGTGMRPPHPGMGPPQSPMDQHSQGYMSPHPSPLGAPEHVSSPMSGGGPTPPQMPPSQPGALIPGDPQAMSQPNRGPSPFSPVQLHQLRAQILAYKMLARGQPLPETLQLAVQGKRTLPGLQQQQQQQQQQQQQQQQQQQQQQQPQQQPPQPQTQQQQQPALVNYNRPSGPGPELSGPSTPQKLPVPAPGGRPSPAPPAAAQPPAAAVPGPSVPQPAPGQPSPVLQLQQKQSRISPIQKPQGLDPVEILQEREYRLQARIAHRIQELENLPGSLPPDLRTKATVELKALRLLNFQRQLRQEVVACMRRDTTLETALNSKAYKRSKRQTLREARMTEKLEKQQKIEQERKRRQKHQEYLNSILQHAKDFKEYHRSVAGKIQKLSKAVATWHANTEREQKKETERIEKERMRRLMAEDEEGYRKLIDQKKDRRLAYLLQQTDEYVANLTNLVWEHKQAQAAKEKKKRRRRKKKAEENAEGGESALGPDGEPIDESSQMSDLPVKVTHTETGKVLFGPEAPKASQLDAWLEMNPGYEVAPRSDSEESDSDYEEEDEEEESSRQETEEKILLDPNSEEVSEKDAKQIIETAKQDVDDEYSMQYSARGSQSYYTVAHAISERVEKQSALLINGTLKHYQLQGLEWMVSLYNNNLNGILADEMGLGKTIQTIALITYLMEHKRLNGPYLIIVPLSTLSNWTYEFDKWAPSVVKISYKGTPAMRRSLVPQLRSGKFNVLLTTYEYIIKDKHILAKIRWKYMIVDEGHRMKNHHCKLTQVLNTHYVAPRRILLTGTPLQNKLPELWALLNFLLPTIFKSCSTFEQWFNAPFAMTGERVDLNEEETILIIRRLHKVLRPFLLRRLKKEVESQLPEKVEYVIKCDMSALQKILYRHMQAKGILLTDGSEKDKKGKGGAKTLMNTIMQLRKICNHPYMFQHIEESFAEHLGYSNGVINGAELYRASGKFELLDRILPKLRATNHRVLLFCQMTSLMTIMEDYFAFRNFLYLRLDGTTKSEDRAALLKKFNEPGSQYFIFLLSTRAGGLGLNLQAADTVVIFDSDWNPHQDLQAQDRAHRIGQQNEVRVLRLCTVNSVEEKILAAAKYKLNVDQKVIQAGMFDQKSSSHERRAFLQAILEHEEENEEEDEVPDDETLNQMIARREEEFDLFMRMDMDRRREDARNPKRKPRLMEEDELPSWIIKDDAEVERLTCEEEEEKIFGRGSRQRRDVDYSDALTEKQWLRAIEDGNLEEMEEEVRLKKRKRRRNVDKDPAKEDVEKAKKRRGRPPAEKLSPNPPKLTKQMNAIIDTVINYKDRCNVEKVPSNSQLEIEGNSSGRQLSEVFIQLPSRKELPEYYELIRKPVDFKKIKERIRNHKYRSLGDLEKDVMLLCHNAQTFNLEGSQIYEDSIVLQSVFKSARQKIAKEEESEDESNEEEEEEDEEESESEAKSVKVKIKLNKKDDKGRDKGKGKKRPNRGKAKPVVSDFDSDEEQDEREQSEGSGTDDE
In short: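 ADP-Glo luminescence, after depletion of leftover ATP and conversion of ADP, reported the activity. The 1 h room-temperature reaction held 400 μM ATP, 20 nM salmon sperm DNA and 30 nM BRM in 20 mM Tris pH 8, 20 mM MgCl2, 50 mM NaCl, 0.1% Tween-20, 1 mM DTT.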

[1] = ATPase catalytic activity, ADP-Glo

| Structure (SMILES) | IC50 (BRG-1; [1]) [nM] | IC50 (BRM; [1]) [nM] | Ratio* (BRM; ratio of BRG1 IC50 to BRM IC50) | IC50 (BRG-1; ADP-Glo ATPase assay) [nM] | IC50 (BRM; ADP-Glo ATPase assay) [nM] | Ratio* (BRG1 IC50 (μM) divided by BRM IC50 (μM)) (BRM) | Ratio* (BRM; ratio BRG1 IC50 / BRM IC50) |
| --- | --- | --- | --- | --- | --- | --- | --- |
| O=C(NCc1cc2nc(N3CCCc4ccc(Cl)cc43)ccc2cn1)c1ccc2c(c1)S(=O)(=O)CCOC2 [Compound 533] | 91.4 | 7.3 | 12.51 |  |  |  |  |
| CN(CC1(F)COC1)c1cccc(-c2ccc3cnc(CNC(=O)c4ccc5c(c4)S(=O)(=O)CCOC5)cc3n2)n1 [Compound 314] | 480 | 45.7 | 10.51 |  |  |  |  |
| CN1C(=O)CN(c2ccc3cnc(CNC(=O)c4ccc5c(c4)S(=O)(=O)CCOC5)cc3n2)c2ccccc21 [Compound 511] | 835 | 329 | 2.54 |  |  |  |  |
| O=C(NCc1cc2nc(-c3cccc4c3CCN4C3COC3)ccc2cn1)c1ccc2c(c1)S(=O)(=O)CCOC2 [Compound 198] |  |  |  | 967 | 222 | 4.34 |  |
| COc1cnc2c(c1C)CCCN2c1ccc2cnc(CNC(=O)c3ccc4c(c3)S(=O)(=O)CCOC4)cc2n1 [Compound 637] | 207 | 20 | 10.34 |  |  |  |  |
| Cn1cc(-c2ccc3cnc(CNC(=O)c4ccc5c(c4)S(=O)(=O)CCOC5)cc3n2)c(OC(F)F)n1 [Compound 812] |  |  |  | 662 | 45.8 |  | 14.46 |
| C[C@H]1COCc2ccc(C(=O)NCc3cc4nc(-c5cccc(C6CC6)n5)ccc4nn3)cc2S1(=O)=O [Compound 423] | 491 | 15.2 | 32.23 |  |  |  |  |
| CC1CN(c2cccc(-c3ccc4cnc(CNC(=O)c5ccc6c(c5)S(=O)(=O)C(C)CN6C)cc4n3)n2)CC(C)O1 (stereo not drawn) [Compound 567] | 534 | 32.8 | 16.28 |  |  |  |  |
| C[C@@H]1CN(c2cccc(-c3ccc4cnc(CNC(=O)c5cc(Cl)c6c(c5)S(=O)(=O)[C@@H](C)CCO6)cc4n3)n2)C[C@H](C)O1 [Compound 484] | 289 | 13.7 | 21.16 |  |  |  |  |
| CN(C)c1nccc2c1CCCN2c1ccc2cnc(CNC(=O)c3ccc4c(c3)S(=O)(=O)CCOC4)cc2n1 [Compound 836] |  |  |  | 651 | 105 |  | 6.21 |
| O=C(NCc1cc2nc(N3CCCc4cccc(Cl)c43)ccc2cn1)c1ccc2c(c1)S(=O)(=O)CCOC2 [Compound 736] |  |  |  | 3900 | 1140 |  | 3.42 |
| CN1CCN(c2ccc3cnc(CNC(=O)c4ccc5c(c4)S(=O)(=O)CCOC5)cc3n2)c2ncccc21 [Compound 442] | 178 | 16.4 | 10.89 |  |  |  |  |
| O=C(NCc1cc2nc(-c3cccc(N4CCOCC4)n3)ccc2cn1)c1ccc2c(c1)S(=O)(=O)CCOC2 [Compound 226] |  |  |  | 136 | 11.1 | 12.29 |  |
| Cc1ccc2c(n1)N(c1ccc3cnc(CNC(=O)c4ccc5c(c4)S(=O)(=O)CCOC5)cc3c1)CCO2 [Compound 679] | 423 | 18.9 | 22.41 |  |  |  |  |
| O=C(NCc1cc2nc(N3CCOc4ccc(C5CC5)c(F)c43)ccc2cn1)c1ccc2c(c1)S(=O)(=O)CCOC2 [Compound 760] |  |  |  | 62.2 | 8.8 |  | 7.05 |
| [2H]C1([2H])OC([2H])([2H])[C@@H](C)S(=O)(=O)c2cc(C(=O)NCc3cc4nc(-c5cccc(N6C[C@@H](C)O[C@@H](C)C6)n5)ccc4cn3)ccc21 [Compound 717] |  |  |  | 432 | 77 |  | 5.61 |
| CN1CCCc2ccc(C(=O)NCc3cc4nc(-c5cncc(C6CC6)n5)ccc4cn3)cc2S1(=O)=O [Compound 297] |  |  |  | 2030 | 140 | 14.47 |  |
| COCC1CN(c2ccc3cnc(CNC(=O)c4ccc5c(c4)S(=O)(=O)CCOC5)cc3n2)c2ccccc2O1 (stereo not drawn) [Compound 716] |  |  |  | 4770 | 1730 |  | 2.75 |
| C[C@@H]1CN(c2cccc(-c3ccc4cnc(CNC(=O)c5ccc6c(c5)S(=O)(=O)[C@@H](C)CO6)cc4n3)n2)C[C@H](C)O1 [Compound 687] | 360 | 19.7 | 18.34 |  |  |  |  |

| Structure (SMILES) | IC50 (BRG-1; [1]) [nM] | IC50 (BRM; [1]) [nM] | Ratio* (BRM; ratio of BRG1 IC50 to BRM IC50) | IC50 (BRG-1; ADP-Glo ATPase assay) [nM] | IC50 (BRM; ADP-Glo ATPase assay) [nM] | Ratio* (BRG1 IC50 (μM) divided by BRM IC50 (μM)) (BRM) | Ratio* (BRM; ratio BRG1 IC50 / BRM IC50) |
| --- | --- | --- | --- | --- | --- | --- | --- |
| O=C(NCc1cc2nc(-c3cccc(C4CC4)n3)cnc2cn1)c1ccc2c(c1)S(=O)(=O)CCOC2 [Compound 191] |  |  |  | 1180 | 60.1 | 19.73 |  |
| C[C@@H]1CN(c2cccc(-c3ccc4cnc(CNC(=O)c5ccc6c(c5)S(=O)(=O)CCCOC6)cc4n3)n2)C[C@H](C)O1 [Compound 628] | 9.7 | 2.7 | 3.60 |  |  |  |  |
| Cn1ncc2c1CCCN2c1ccc2cnc(CNC(=O)c3ccc4c(c3)S(=O)(=O)CCOC4)cc2n1 [Compound 380] | 511 | 98.2 | 5.20 |  |  |  |  |
| CN(C)c1cccc(-c2ccc3cnc(CNC(=O)c4ccc5c(c4)S(=O)(=O)CCOC5)cc3n2)n1 [Compound 303] |  |  |  | 156 | 12.3 | 12.63 |  |
| CC1CN(c2ccc3cnc(CNC(=O)c4ccc5c(c4)S(=O)(=O)CCOC5)cc3n2)c2ncccc2N1C (stereo not drawn) [Compound 649] | 750 | 126 | 5.93 |  |  |  |  |
| Cc1cc(F)c2c(c1)OCCN2c1ccc2cnc(CNC(=O)c3ccc4c(c3)S(=O)(=O)CCOC4)cc2n1 [Compound 764] |  |  |  | 159 | 9.5 |  | 16.66 |
| Cc1ccc2c(n1)N(c1ccc3cnc(CNC(=O)c4ccc5c(c4)S(=O)(=O)CCOC5)cc3n1)CCO2 [Compound 557] | 235 | 11.3 | 20.89 |  |  |  |  |
| COCCN(C)c1cccc(-c2ccc3cnc(CNC(=O)c4cnc(C(F)F)c(S(C)(=O)=O)c4)cc3n2)n1 [Compound 105] |  |  |  | 937 | 69.9 | 13.41 |  |
| CO[C@H]1C[C@@H](c2cccc(-c3ccc4cnc(CNC(=O)c5ccc6c(c5)S(=O)(=O)CCOC6)cc4n3)n2)C1 [Compound 113] |  |  |  | 583 | 59.5 | 9.79 |  |
| CCOc1nc(-c2ccc3cnc(CNC(=O)c4ccc5c(c4)S(=O)(=O)[C@@H](C)COC5)cc3n2)ccc1F [Compound 497] | 411 | 25.9 | 15.92 |  |  |  |  |
| Cc1ccc2c(c1)OCCN2c1ccc2cnc(CNC(=O)c3cnc4c(c3)S(=O)(=O)[C@@H](C)COC4)cc2n1 [Compound 749] |  |  |  | 209 | 12.6 |  | 16.64 |
| COc1cccc(-c2ccc3cnc(CNC(=O)c4ccc5c(c4)S(=O)(=O)CCOC5)cc3n2)c1 [Compound 265] |  |  |  | 2400 | 167 | 14.36 |  |
| O=C1CS(=O)(=O)c2cc(C(=O)NCc3cc4nc(-c5cccc(C6CC6)c5)ccc4cn3)ccc2CN1 [Compound 188] |  |  |  | 5000 | 287 | 17.42 |  |
| O=C(NCc1cc2nc(-c3cccc(C4CC4)n3)ccc2cn1)c1cnc2c(c1)S(=O)(=O)CCOC2 [Compound 204] |  |  |  | 679 | 56.5 | 12.01 |  |
| CO[C@@H]1COc2c(-c3ccc4cnc(CNC(=O)c5ccc6c(c5)S(=O)(=O)CCOC6)cc4n3)cccc2N(C)C1 [Compound 614] | 862 | 95.1 | 9.06 |  |  |  |  |
| C[C@@H]1CN(c2cccc(-c3ccc4cnc(CNC(=O)c5ccc6c(c5)S(=O)(=O)CCOCC6)cc4n3)n2)C[C@H](C)O1 [Compound 627] | 5 | 3.9 | 1.28 |  |  |  |  |
| COc1nc(C(C)(F)F)ccc1-c1ccc2cnc(CNC(=O)c3ccc4c(c3)S(=O)(=O)[C@@H](C)COC4)cc2n1 [Compound 542] | 229 | 16.8 | 13.60 |  |  |  |  |
| C[C@@H]1CN(c2cccc(-c3ccc4cnc(CNC(=O)c5cc(F)c(C(F)F)c(S(C)(=O)=O)c5)cc4n3)n2)C[C@H](C)O1 [Compound 147] |  |  |  | 394 | 15.6 | 25.22 |  |
